According to publication PMC11677752 (Pharmaceutics, 2024):

How the values were obtained:
NAT = settings: cited from earlier work; for Inhibition of 5-ASA Ac-CoA-dependent metabolism: alternative NAT substrates
[1] = system: peptide transporter 1 (PEPT1); design: method as in PMID 28867741; settings: cited from earlier work
[2] = 5-ASA membrane distribution study in rats (GI membrane concentrations); settings: fed rats, oral 30 mg/2.2 mL/kg
Procedure: The animal study was performed according to the Care and Use of Laboratory Animals of the Committee for Animal Experiments of Fukuyama University (2023-A-10). Male Sprague Dawley rats were purchased from Japan SLC, Inc. (Hamamatsu, Japan). After feeding for several days, the rats that weighed 200 to 300 g were used for the membrane distribution studies. […] Separately, the fed rats were treated with lansoprazole, which was dissolved with a small amount of dimethyl sulfoxide (DMSO) and then diluted with physiological saline to make a lansoprazole solution (5 mg/mL); this solution was injected intraperitoneally at a 5 mg/mL/kg dose. […] One milliliter of water was poured into each isolated segment’s lumen and the luminal fluid pH was measured using a compact pH meter (HORIBA, LAQUA twin®, Kyoto, Japan). The intestinal tract was opened and cleaned with ice-cold 0.9% NaCl solution, frozen in liquid nitrogen, and stored at −80 °C until analysis.
An L-column 2 ODS (150 mm × 4.6 mm, particle size 5 µm, CERI Co., Ltd., Saitama, Japan) was used, and the mobile phase was a mixture of 0.1 M acetic acid, acetonitrile, and triethylamine (920:100:2, v/v/v). The mobile phase flow rate was 1 mL/min. […] The HPLC system (Shimadzu, Kyoto, Japan) comprised a model LC20AD pump, a 20 µL fixed injection loop, and a fluorescence spectrophotometer (Shimadzu, RF10AXL). […]

MRP2 = settings: cited from earlier work
[3] = design: method as in PMID 3557190; settings: healthy volunteers, intravenous dose 0.50 g, oral dose 2.42 g; cited from earlier work
[4] = Regional luminal fluid pH in rats; type: in vivo; settings: lansoprazole 5 mg/mL/kg i.p. 1 h before oral 5-ASA solution in 5% NaHCO3; 3 h after 5-ASA; untreated control rats […] ± 0.60, p = 0.07
[5] = three animal species (rats, rabbits, and pigs); cited from earlier work

Nc1ccc(O)c(C(=O)O)c1 [5-ASA, 5-Aminosalicylic acid]
Km (NAT; saturable, read-out: Km of Ac-CoA-dependent metabolism): 5.8 µM | Inhibition of PEPT1-mediated uptake transport [1]: can inhibit | Time for remaining unabsorbed 5-ASA in the small intestine to reach the distal intestine [2]: ≤ 8 h | Time for some fraction of orally administered 5-ASA to reach the cecum/proximal colon [2]: ≤ 3 h | Substrate for MRP2 (MRP2): is not a substrate and not | Absolute oral bioavailability [3]: 15.5%

CC(=O)Nc1ccc(O)c(C(=O)O)c1 [AC-5-ASA, N-acetyl-5-ASA]
PappBA/PappAB ratio (MRP2; Caco-2 cells): 4.89 | Substrate for MRP2 (MRP2): is a substrate

CN(C)C(=O)CCSC(SCCC(=O)O)c1cccc(/C=C/c2ccc3ccc(Cl)cc3n2)c1 (centres unmarked) [MK571]
PappBA/PappAB permeability ratio of AC-5-ASA in presence of the MRP inhibitor (MRP2; Caco-2 cells): ~1

NNC(=O)c1ccncc1 [isoniazid]
Inhibition of 5-ASA Ac-CoA-dependent metabolism (NAT): inhibited

Cc1c(OCC(F)(F)F)ccnc1C[S+]([O-])c1nc2ccccc2[nH]1 (centres unmarked) [lansoprazole]
Gastric pH [4]: 4.77 ± 0.12

Nc1ccc(C(=O)N[C@@H](CCC(=O)O)C(=O)O)cc1 [p-aminobenzoylglutamate]
Inhibition of 5-ASA Ac-CoA-dependent metabolism (NAT): inhibited

C[C@]12C=CC(=O)C=C1CC[C@@H]1[C@@H]2[C@@H](O)C[C@@]2(C)[C@H]1CC[C@]2(O)C(=O)CO [prednisolone]
Correlation of solubility with gastrointestinal pH [5]: not correlated significantly

O=c1c(O)c(-c2ccc(O)c(O)c2)oc2cc(O)cc(O)c12 [quercetin]
PappBA/PappAB permeability ratio of AC-5-ASA in presence of the MRP inhibitor (MRP2; Caco-2 cells): ~1
